Assay results as given in ChEMBL document CHEMBL1201862, “PubChem BioAssay data set” (2004).
Active and inactive are the calls of the source.

Assays:
[1] = Luminescence Cell-Based Dose Response HTS to Identify Inhibitors of 5'UTR Stem-Loop Driven Prion Protein mRNA Translation in H4 Neuroglioblastoma Cells. [Related pubchem assays: 1827 (Project Summary), 1813 (Primary HTS)]; format: functional
Hexokinase HKDC1 = target: T1, Hexokinase HKDC1 (Homo sapiens, UniProt Q2TB90); test: activation of HKDC1 glucose phosphorylation – biochemical, W721R variant, dose response (AID 504730); format: functional
T1 sequence (Q2TB90 whole entry): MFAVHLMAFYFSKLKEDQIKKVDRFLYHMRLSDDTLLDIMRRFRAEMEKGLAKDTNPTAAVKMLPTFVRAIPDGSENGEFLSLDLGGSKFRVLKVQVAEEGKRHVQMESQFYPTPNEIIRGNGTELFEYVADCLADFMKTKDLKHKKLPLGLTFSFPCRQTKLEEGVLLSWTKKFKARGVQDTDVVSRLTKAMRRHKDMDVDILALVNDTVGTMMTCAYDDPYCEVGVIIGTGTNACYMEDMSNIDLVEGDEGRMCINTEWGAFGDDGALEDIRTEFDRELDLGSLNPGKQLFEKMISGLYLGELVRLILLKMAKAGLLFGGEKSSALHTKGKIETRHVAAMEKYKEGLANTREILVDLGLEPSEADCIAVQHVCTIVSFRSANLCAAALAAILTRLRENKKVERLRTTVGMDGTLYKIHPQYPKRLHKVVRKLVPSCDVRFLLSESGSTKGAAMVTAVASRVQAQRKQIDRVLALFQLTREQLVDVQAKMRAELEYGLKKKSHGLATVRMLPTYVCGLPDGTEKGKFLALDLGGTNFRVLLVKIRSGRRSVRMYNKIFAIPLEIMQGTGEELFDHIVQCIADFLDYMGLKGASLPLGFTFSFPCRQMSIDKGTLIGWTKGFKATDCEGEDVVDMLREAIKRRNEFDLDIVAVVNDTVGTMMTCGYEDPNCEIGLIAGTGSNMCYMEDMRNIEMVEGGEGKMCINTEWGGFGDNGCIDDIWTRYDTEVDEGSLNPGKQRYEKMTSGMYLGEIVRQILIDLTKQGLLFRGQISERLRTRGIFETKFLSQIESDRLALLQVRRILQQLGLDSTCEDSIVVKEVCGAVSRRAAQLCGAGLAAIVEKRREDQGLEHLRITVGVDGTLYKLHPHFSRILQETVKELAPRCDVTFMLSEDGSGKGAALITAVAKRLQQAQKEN

[2] = target: T2, Heat shock factor protein 1 (Mus musculus, UniProt P38532); test: decrease of HSF1-responsive luciferase luminescence – cell-based, NIH3T3, dose retest, confirmation (AID 2382); format: functional;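 further: NIH3T3 fibroblasts with HSF1-driven luciferase reporter stressed by proteasome inhibitor MG132; luminescence from HSF1-driven luciferase expression after 8 hours of MG132 stress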
T2 sequence (P38532 whole entry): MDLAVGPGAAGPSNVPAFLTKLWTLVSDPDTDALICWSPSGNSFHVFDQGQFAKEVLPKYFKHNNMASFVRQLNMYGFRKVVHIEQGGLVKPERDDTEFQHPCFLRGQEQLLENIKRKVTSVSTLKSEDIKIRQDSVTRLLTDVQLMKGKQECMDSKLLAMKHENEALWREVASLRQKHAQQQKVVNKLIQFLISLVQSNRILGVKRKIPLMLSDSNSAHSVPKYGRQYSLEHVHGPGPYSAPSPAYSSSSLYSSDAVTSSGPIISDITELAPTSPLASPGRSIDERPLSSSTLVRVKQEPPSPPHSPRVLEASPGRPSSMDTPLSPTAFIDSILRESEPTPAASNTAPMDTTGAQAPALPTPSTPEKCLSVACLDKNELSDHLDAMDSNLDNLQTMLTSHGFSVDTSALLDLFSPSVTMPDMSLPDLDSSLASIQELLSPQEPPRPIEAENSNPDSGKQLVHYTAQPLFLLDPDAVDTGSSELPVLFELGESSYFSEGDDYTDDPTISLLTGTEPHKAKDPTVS

Caspase-7 = Caspase-7 (Homo sapiens, UniProt P55210); test: caspase-7 enzyme inhibition, selectivity check – biochemical, DEVD-R110 fluorescence, cherry-pick, selectivity assay for caspase-6 inhibitor project, dose response (AID 743295); format: functional
[3] = target: T3, Rac GTPase-activating protein 1 (Homo sapiens, UniProt Q9H0H5); test: blockers of MgcRacGAP-driven Rac1 GTP hydrolysis – biochemical, ADP Hunter fluorescence, primary and confirmatory, confirmation (AID 624330); format: functional
T3 sequence (Q9H0H5 whole entry): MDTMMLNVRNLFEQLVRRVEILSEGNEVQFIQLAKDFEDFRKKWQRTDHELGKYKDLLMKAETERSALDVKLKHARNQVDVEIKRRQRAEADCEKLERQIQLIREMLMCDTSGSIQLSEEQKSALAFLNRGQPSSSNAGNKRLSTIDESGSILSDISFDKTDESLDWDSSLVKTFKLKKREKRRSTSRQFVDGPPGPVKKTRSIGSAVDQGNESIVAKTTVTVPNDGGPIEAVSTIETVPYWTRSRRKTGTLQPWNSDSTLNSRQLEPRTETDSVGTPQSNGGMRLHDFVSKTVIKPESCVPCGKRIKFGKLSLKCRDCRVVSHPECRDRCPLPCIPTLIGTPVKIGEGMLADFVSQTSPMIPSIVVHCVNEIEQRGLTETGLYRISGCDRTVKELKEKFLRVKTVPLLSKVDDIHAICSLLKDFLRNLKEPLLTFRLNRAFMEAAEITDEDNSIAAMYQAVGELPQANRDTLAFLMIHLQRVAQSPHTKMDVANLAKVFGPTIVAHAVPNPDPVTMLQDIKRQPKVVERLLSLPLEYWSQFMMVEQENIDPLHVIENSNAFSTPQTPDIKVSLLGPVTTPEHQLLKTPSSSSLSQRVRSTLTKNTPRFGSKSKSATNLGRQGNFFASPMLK

Sequence of Caspase-7 (P55210 24-198 limits assumed): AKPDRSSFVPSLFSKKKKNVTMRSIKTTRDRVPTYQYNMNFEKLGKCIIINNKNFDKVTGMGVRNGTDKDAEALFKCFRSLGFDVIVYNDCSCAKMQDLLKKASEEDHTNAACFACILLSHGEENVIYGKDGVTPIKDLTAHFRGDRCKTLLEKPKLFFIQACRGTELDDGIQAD
Sequence of Caspase-7 (P55210 207-303 limits assumed): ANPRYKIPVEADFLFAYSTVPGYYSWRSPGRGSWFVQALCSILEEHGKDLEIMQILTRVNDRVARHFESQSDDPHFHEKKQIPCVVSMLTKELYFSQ

Question: With `Cn1nc(-c2ccc(Cl)cc2)nc2c(=O)n(C)c(=O)nc1-2` as the compound, how does the EC50 [1] read?
Answer: Its EC50 is > 120 µM (not active).

Question: For `SC1=Nc2ccccc2C1`, which EC50 (Hexokinase HKDC1) is on record?
Answer: Its EC50 is 18 µM (active).

Question: And the EC50 [2]?
Answer: Its EC50 is 0.79 µM (active).

Question: For `NS(=O)(=O)c1ccc(NC(=O)COC(=O)c2ccc([N+](=O)[O-])s2)cc1`, which AC50 (Caspase-7) is on record?
Answer: Its AC50 is > 22 µM (inactive).

Question: For `CCCCNc1cc(NC(C)=O)cc2cc(OC)c(OC)cc12`, which IC50 [3] is on record?
Answer: The IC50 was 39.5 µM (active).
